# Measured values: publication PMC1525162 (BMC Pharmacology, 2006)
# “Also recorded” adds a separate entry of the source. Bridge positions count the residues as written; N and C are the ends. Peptide text beside a SMILES is read from it.
# What was measured:
# [1] = system: endogenous CGRP receptor expressed on SK-N-MC human neuroblastoma cells; details: cited from earlier work
# From the text: (§1) Consequently, it is reasonable to assume that interactions of CGRP-F37 with the mature CLR-RAMP1 heterodimer would necessitate a more complex relationship in order to account for the high affinity binding associated with ...
# CGRP receptor = details: displaced by CGRP and CGRP(8–37); cited from earlier work
# From the text: as §1
# [2] = molecular target: T1, wild type CLR-RAMP1 heterodimer (HEK293T-RAMP1 membranes) (Homo sapiens, UniProt O60894+Q16602); assay: Competition radioligand binding, wild type CLR; details: compared to Ki of CGRP
# Protocol: (§2) A crude cell membrane preparation was prepared as previously described. Briefly, HEK293T-RAMP1 membranes were prepared by scraping and transferring cells to a 50 mL conical tube using cold HBSS followed with two washings by centrifugation at 1000 × g using cold HBSS. The intact cell pellet was resuspended in 10 mL of 0.25 M sucrose containing a protease inhibitor cocktail consisting of 10μg/mL benzamidine, 10μg/mL leupeptin, and 20μg/mL phenylmethysulfonylfluoride. The cells were disrupted by freezing followed by Dounce homogenization of the thawed suspension using 20 strokes from a loose fitting (B) pestle. This mixture was then centrifuged at 1260 × g for 5 min at 4°C. Buffer A (20 mM HEPES, pH 7.5, 1.4 mM EGTA, 12.5 mM MgCl2, 10μg/mL benzamidine, 10μg/mL leupeptin, and 20μg/mL phenylmethysulfonylfluoride) was added to the supernatant and centrifuged again at 30,000 × g for 15 min at 4°C. The resultant pellet was kept, resuspended in buffer A then centrifuged once more at 30,000 × g for 15 min at 4°C. […] Protein concentrations were measured using the method of Bradford.
# (§3) The radioligand binding protocol used for this study was performed as previously described. […] Amounts of total and non-specific radiolabel bound to cell membranes were calculated from radioactive counts remaining on the glass fiber filters.
# [3] = molecular target: wild type CLR-RAMP1 (transiently transfected HEK293T-RAMP1 cells) (Homo sapiens, UniProt O60894+Q16602); assay: cAMP generation, wild type CLR; assay type: cell-based
# [4] = system: endogenous CGRP receptors on acutely isolated pancreatic acinar cells; design: method as in PMID 7689110; details: cited from earlier work
# [5] = system: L24A, L34A and L24A,L34A CLR-RAMP1 heterodimers versus wild type; assay: Competition/saturation binding, leucine mutant CLRs compared with wild type; design: species or system human; details: for affinity at leucine mutants compared with wild type: L34A, L24A,L34A vs wild type CLR
# Protocol: A crude cell membrane preparation was prepared as previously described. Briefly, HEK293T-RAMP1 membranes were prepared by scraping and transferring cells to a 50 mL conical tube using cold HBSS followed with two washings by centrifugation at 1000 × g using cold HBSS. The intact cell pellet was resuspended in 10 mL of 0.25 M sucrose containing a protease inhibitor cocktail consisting of 10μg/mL benzamidine, 10μg/mL leupeptin, and 20μg/mL phenylmethysulfonylfluoride. The cells were disrupted by freezing followed by Dounce homogenization of the thawed suspension using 20 strokes from a loose fitting (B) pestle. This mixture was then centrifuged at 1260 × g for 5 min at 4°C. Buffer A (20 mM HEPES, pH 7.5, 1.4 mM EGTA, 12.5 mM MgCl2, 10μg/mL benzamidine, 10μg/mL leupeptin, and 20μg/mL phenylmethysulfonylfluoride) was added to the supernatant and centrifuged again at 30,000 × g for 15 min at 4°C. The resultant pellet was kept, resuspended in buffer A then centrifuged once more at 30,000 × g for 15 min at 4°C. The final crude membrane pellet was resuspended in buffer A containing 10% glycerol and stored in aliquots at -70°C until used for radioligand binding. Protein concentrations were measured using the method of Bradford.
# The radioligand binding protocol used for this study was performed as previously described. […] Binding was stopped by filtering the membranes though Whatman GF/C glass fiber filters, followed by 5 – 5 mL washes with cold buffer B (20 mM HEPES, pH 7.5, 1.4 mM EGTA, 12.5 mM MgCl2) to remove any unbound drug. Amounts of total and non-specific radiolabel bound to cell membranes were calculated from radioactive counts remaining on the glass fiber filters.
# [6] = system: wild type and L24A, L34A, L24A,L34A CLR-RAMP1 (HEK293T-RAMP1 cells); assay: cAMP generation, wild type and leucine mutant CLRs compared; details: L24A, L34A, L24A,L34A vs wild type CLR
# [7] = molecular target: T1, wild type CLR-RAMP1 heterodimer (HEK293T-RAMP1 membranes); assay: Saturation binding of [^125I-Tyr]CGRP(8–37), wild type CLR; details: per mg wild type membrane protein; mean ± S.E., n = 3 in duplicate
# Protocol: as §2, §3
# [8] = molecular target: CGRP receptors endogenously expressed in rat brain and peripheral tissues; design: method as in Van Rossum et al., 1994; details: previously published equilibrium dissociation constant; ref Van Rossum et al., 1994; read-out: Reported Wild Type, Kd of radioligand; cited from earlier work
# [9] = system: HEK293T-RAMP1 membranes without CLR; assay: Radioligand binding, non-transfected or empty-vector HEK293T-RAMP1 membranes; details: increasing radioligand concentrations, data not shown
# Protocol: as §2, §3
# [10] = molecular target: endogenous CGRP receptors expressed in the guinea pig atria; design: method as in Rovero et al., 1992; details: estimated from functional characterization, n = 3, ref Rovero et al., 1992, read-out: Reported Wild Type, equilibrium dissociation constant; cited from earlier work
molecule,measurement,setting,value
NCCCC[C@H](NC(=O)[C@@H](Cc1cc(Br)c(O)c(Br)c1)NC(=O)N1CCC(N2Cc3ccccc3NC2=O)CC1)C(=O)N1CCN(c2ccncc2)CC1 [BIBN4096BS],affinity for endogenous CGRP receptor,[1],high affinity
same,displacement in competition binding,CGRP receptor,"selectively be displaced in competition binding assays by CGRP and the receptor antagonist, CGRP(8–37)"
CC(C)C[C@H](NC(=O)CNC(=O)[C@H](C)NC(=O)[C@H](CC(C)C)NC(=O)[C@H](CCCNC(=N)N)NC(=O)[C@H](Cc1c[nH]cn1)NC(=O)[C@@H](NC(=O)[C@@H](NC(=O)[C@@H]1CSSC[C@H](NC(=O)[C@H](C)N)C(=O)N[C@@H](CC(=O)O)C(=O)N[C@@H]([C@@H](C)O)C(=O)N[C@@H](C)C(=O)N[C@@H]([C@@H](C)O)C(=O)N1)C(C)C)[C@@H](C)O)C(=O)N[C@@H](CC(C)C)C(=O)N[C@@H](CO)C(=O)N[C@@H](CCCNC(=N)N)C(=O)N[C@@H](CO)C(=O)NCC(=O)NCC(=O)N[C@H](C(=O)N[C@H](C(=O)N[C@@H](CCCCN)C(=O)N[C@@H](CC(N)=O)C(=O)N[C@@H](CC(N)=O)C(=O)N[C@@H](Cc1ccccc1)C(=O)N[C@H](C(=O)N1CCC[C@H]1C(=O)N[C@H](C(=O)N[C@@H](CC(N)=O)C(=O)N[C@H](C(=O)NCC(=O)N[C@@H](CO)C(=O)N[C@@H](CCCCN)C(=O)N[C@@H](C)C(N)=O)C(C)C)[C@@H](C)O)C(C)C)C(C)C)C(C)C [CGRP(1–36)] (H-ACDTATCVTHRLAGLLSRSGGVVKNNFVPTNVGSKA-NH2; disulfide 2-7 (inferred); N-terminus assumed),affinity for wild type CLR compared with CGRP,[2],significant affinity loss
same,maximal cAMP response,"[3]; CGRP(1–36) compared with CGRP, CGRP(1–19) compared with CGRP(1–36) and CGRP",maximal response was similar
same,"fold loss of EC50 potency vs CGRP, wild type",[3]; cAMP EC50 of the fragment compared with CGRP,"over 2,600 fold"
same,"cAMP potency compared with CGRP, wild type",[3]; compared to CGRP,significantly less
same,amylase release,[4],increase amylase release
same,affinity at leucine mutants compared with wild type,[5],no differences
same,cAMP potency at leucine mutants compared with wild type,[6],no different; also recorded: no significant potency differences
CC(C)C[C@H](NC(=O)CNC(=O)[C@H](C)NC(=O)[C@H](CC(C)C)NC(=O)[C@H](CCCNC(=N)N)NC(=O)[C@H](Cc1c[nH]cn1)NC(=O)[C@@H](NC(=O)[C@@H](NC(=O)[C@@H](N)Cc1ccc(O)c(I)c1)C(C)C)[C@@H](C)O)C(=O)N[C@@H](CC(C)C)C(=O)N[C@@H](CO)C(=O)N[C@@H](CCCNC(=N)N)C(=O)N[C@@H](CO)C(=O)NCC(=O)NCC(=O)N[C@H](C(=O)N[C@H](C(=O)N[C@@H](CCCCN)C(=O)N[C@@H](CC(N)=O)C(=O)N[C@@H](CC(N)=O)C(=O)N[C@@H](Cc1ccccc1)C(=O)N[C@H](C(=O)N1CCC[C@H]1C(=O)N[C@H](C(=O)N[C@@H](CC(N)=O)C(=O)N[C@H](C(=O)NCC(=O)N[C@@H](CO)C(=O)N[C@@H](CCCCN)C(=O)N[C@@H](C)C(=O)N[C@@H](Cc1ccccc1)C(N)=O)C(C)C)[C@@H](C)O)C(C)C)C(C)C)C(C)C [[^125I-Tyr]CGRP(8–37)],"fold decrease in affinity, mutant receptors vs wild type","[5]; L34A and L24A,L34A compared to wild type CLR",~10 fold
same,Bmax (maximal specific binding),[7],285 ± 206 fmols/mg
same,Kd,[8],0.0002 µM
same,specific binding without CLR,[9],no specific binding
Ac-SGGVVKNNFVPTNVGSKAF-NH2 [AcCGRP(19–37)],affinity at leucine mutants compared with wild type,[5],significantly different (P < .05) from the wild type receptor
same,Kd,[10],0.933 µM
